Source: patent US5866609A, “Substituted vinylurea derivatives and medicine containing the same” (SS Pharmaceutical Co., Ltd., priority 1996, dated 1999)

Columns and labels:
[1] = molecular target: T1, ACAT in J774 cells (Mus musculus, UniProt Q61263); assay: inhibitory activity against ACAT using J774 cells; type: cell-based; conditions: 100 nM of each compound, mean ± S.D., n = 3, 4 hours at 37° C., vs DMSO control, read-out: Inhibition rate against ACAT activity in J774 cells (%)
T1 construct: endogenous in cells; host or cells: J774 cells (mouse macrophage-like)
T1 sequence (Q61263 1-540): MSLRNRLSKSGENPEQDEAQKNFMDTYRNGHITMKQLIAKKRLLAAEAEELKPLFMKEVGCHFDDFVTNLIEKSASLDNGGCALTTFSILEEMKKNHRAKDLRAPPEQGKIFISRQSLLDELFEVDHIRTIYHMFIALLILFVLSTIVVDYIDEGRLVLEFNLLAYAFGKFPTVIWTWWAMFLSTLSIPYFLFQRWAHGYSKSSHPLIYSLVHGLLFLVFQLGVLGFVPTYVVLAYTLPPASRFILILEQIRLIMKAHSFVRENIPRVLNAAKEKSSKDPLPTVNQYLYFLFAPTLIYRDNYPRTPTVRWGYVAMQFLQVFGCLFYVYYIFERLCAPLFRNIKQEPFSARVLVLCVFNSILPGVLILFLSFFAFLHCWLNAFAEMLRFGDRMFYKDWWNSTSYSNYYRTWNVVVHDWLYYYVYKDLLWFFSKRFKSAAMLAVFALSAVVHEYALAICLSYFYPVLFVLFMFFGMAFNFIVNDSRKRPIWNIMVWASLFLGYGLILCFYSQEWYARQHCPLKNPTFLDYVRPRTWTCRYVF
Method: i) Test for inhibitory activity against ACAT using J774 cells:
The ACAT activity of J774 cells was measured as the radioactivity of cholesteryl oleate produced from [^14 C]oleic acid and cholesterol which were added to a culture solution.
Added to the cells were [^14 C]oleic acid, delipidized BAS (bovine serum albumin), […] (0.3M glucose solution containing cholesterol and phosphatidylcholine at a weight ratio of 2:1) and 25-hydroxycholesterol to culture the cells for 4 hours at 37° C. under 5% CO2. After the culturing, the cultured cells were disrupted with a 1% SDS (sodium lauryl sulfate) solution, and the lipid in the disrupted solution was extracted with hexane. The extract was dried to solid under reduced pressure. After the resultant residue was then developed (developing solvent: diethyl ether/hexane/acetic acid=80/20/1) by TLC (thin-layer chromatography), the amount of cholesteryl oleate formed was determined by an imaging plate.

[2] = molecular target: T2, ACAT of rat liver microsome (Rattus norvegicus, UniProt Q7TQM4); assay: inhibitory activity against ACAT using rat liver microsome; type: biochemical; conditions: 5 min; 100 nM of each compound; Mean + S.D.; n = 3; 37° C. for 5 minutes; vs DMSO control; read-out: Inhibition rate against ACAT activity in rat liver microsome (%)
T2 construct: from tissue; host or cells: rat liver microsomes
T2 sequence (Q7TQM4 1-524): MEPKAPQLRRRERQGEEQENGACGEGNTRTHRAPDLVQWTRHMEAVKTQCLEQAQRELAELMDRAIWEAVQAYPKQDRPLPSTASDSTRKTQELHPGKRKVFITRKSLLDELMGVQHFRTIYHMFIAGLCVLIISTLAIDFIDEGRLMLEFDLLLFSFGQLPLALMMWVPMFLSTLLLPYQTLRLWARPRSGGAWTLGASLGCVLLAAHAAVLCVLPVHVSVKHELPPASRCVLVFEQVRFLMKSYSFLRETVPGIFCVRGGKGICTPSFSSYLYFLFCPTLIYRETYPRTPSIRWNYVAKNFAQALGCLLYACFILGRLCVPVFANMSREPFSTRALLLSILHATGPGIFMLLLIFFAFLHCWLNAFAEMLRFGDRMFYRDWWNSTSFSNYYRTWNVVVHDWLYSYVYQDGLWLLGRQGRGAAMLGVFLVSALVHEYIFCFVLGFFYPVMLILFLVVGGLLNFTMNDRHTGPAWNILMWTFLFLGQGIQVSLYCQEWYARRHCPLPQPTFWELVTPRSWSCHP
Method: - ii) Test for inhibitory activity against ACAT using rat liver microsome
The ACAT activity of rat liver microsome was measured as the radioactivity of cholesteryl oleate produced from [^14 C]oleoyl-CoA and endogenous cholesterol.
More specifically, [^14 C]oleoyl-CoA and delipidized BSA were added to a rat liver microsome fraction prepared in accordance with a method known per se in the art to conduct a reaction at 37° C. for 5 minutes. After the reaction, the lipid in the reaction mixture was extracted with hexane, and the extract was dried to solid under reduced pressure. After the resultant residue was then developed (developing solvent: diethyl ether/hexane/acetic acid 80/20/1) by TLC, the amount of cholesteryl oleate formed was determined by an imaging plate.

inhibition at 0.1 µM [1]	inhibition at 0.1 µM [2]	SMILES
77.8 ± 4%	7.87 ± 9.26%	COc1ccc(C(=CNC(=O)Nc2c(C(C)C)cccc2C(C)C)c2ccc(OC)cc2)cc1 [Compound 3]
36.9 ± 11.9%	82.3 ± 2.79%	Cc1cc2ncc(NC(=O)Nc3ccc(F)cc3F)c(-c3ccccc3Cl)c2cc1C [TMP-153]
